Data as given in patent publication US20250157571A1, “Methods, Apparatus, and Systems for Determining the Functional Microbial Niche and Identifying Interventions in Complex Hetergeneous Communities” (The Regents of the University of California, priority 2022, published 2025).
“Also recorded” adds a separate entry of the source.

Key:
Type in all cases: cell-based
16-member SynCom = assay: Targeted interventions in the SynCom (prebiotic metabolite or probiotic strain addition), metagenomics relative abundance; conditions: 7 days; for change in relative abundance in the community upon metabolite addition: SynCom in 0.1×R2A + metabolite, three concentrations; for relative abundance of primary targets (high TE for import protein) after metabolite addition / relative abundance of secondary targets (guild competitors) after metabolite addition: SynCom in 0.1×R2A + substrate vs 0.1×R2A control
Experimental: Optical density readings at 600 nm (OD600), from isolates pre-cultures were taken with a Molecular Devices SpectraMax M3 Multi-Mode Microplate Reader (VWR, cat #89429-536). Precultures were diluted to a starting OD600 of 0.02 in 5 mL 0.1×R2A. The SynCom was assembled in large volumes to minimize pipetting error and maximize reproducibility. Briefly, 1 mL of each normalized culture (OD600=0.02) was diluted in a final volume of 250 mL 0.1×R2A and spread into 20 mL aliquots in Falcon tubes. Falcon tubes containing the SynCom inoculum were then incubated at 30° C. for 7 days, in aerobic conditions, in four biological replicates. After 7 days of culture, the SynCom samples were harvested by centrifugation and pellets were immediately treated for multi-omics analysis as detailed below (DNA-, RNA- and metaRibo-Seq).
For targeted modifications experiments carried out in the SynCom, the SynCom was assembled and cultured as described above, with modifications. Specific isolates were omitted from the SynCom assembly for the dropout experiments, as described in FIGS. 2d and 2e. Alternatively, concentrated stocks of either Burkholderia, Chitinophaga, Mucilaginibacter or Rhizobium were added as probiotics to the SynCom. Metabolites from concentrated, filter-sterilized stocks of the desired substrates were added to the medium for the prebiotics experiments. Modified SynCom were then incubated at 30° C. for 7 days, in aerobic conditions, in two biological replicates. After 7 days of culture, the modified SynCom samples were harvested by centrifugation and pellets were stored at −80° C. prior to metagenomics analysis.
DNA and RNA from SynCom samples were extracted from leftover lysates from metaRibo-Seq sample preparation, stored in Trizol at −80 C. DNA from soil samples was extracted using ZymoBIOMICS DNA miniprep kit (Zymo). DNA-Seq libraries were prepared using Nextera XT library preparation kit with 700 pg DNA input per sample and 6:30 min tagmentation at 55° C. and barcoded using Nextera XT indexes (Illumina). RNA was extracted using RNeasy mini kit (Qiagen), and rRNA was removed using QIAseq FastSelect-5S/16S/23S kit (Qiagen). RNA-Seq libraries were prepared using KAPA RNA HyperPrep kit (Roche) and barcoded using TruSeq indexes (Illumina). Amplification was followed in real time using SYBR-Green and stopped when reaching a plateau.
Adapter sequences were removed from multi-omics sequencing data using TrimGalore (Cutadapt version 1.18), and quality controlled using FastQC version 0.11.9 (Andrews et al. 2010). Trimmed reads were aligned to a custom SynCom database using bowtie2 version 2.3.2. Gene count tables were obtained using Woltka version 0.1.1 (Zhu et al. 2022). Multi-omics gene counts were normalized to reads per kilobase per million (RPKM).

Burkholderia = assay: Pre-/probiotic intervention in natural soil, shotgun metagenomics relative abundance; conditions: for Burkholderia's relative abundance: soil+SynCom probiotic+prebiotic versus soil+SynCom probiotic (FIG. 6)
Rhizobium and Variovorax = assay: as above; conditions: for relative abundance of Burkholderia's competitors Rhizobium and Variovorax: soil+SynCom probiotic+prebiotic versus soil+SynCom probiotic (FIG. 6)
Experimental: (§1) A soil associated with switchgrass lowland reference genome clone (Missaoui, Boerma, and Bouton 2005) that was sampled from a field located in Texas, USA (28.3325, −98.1175) was used. Fifty gram (50 g) of soil was added to 250 mL of 0.1×R2A culture medium or 0.1×R2A+SynCom inoculum prepared as described above, and this volume was spread in 14 mL culture tubes (5 mL in each tube). 50-500 μL of concentrated, filter-sterilized stocks of the desired substrates and/or 20 μL of the SynCom isolate pure cultures diluted at an OD600 of 0.02 (i.e. approximately 8.10^5 CFU/mL) were then added. Soil samples were then grown at 30° C. for 7 days, in aerobic conditions, in two biological replicates (three replicates for reference soil sample). After 7 days of culture, the soil samples were harvested by centrifugation and pellets were stored at −80° C. prior to metagenomics analysis.
(§2) Soil samples from a switchgrass crop similar to the site from which the SynCom strains were originally isolated, were incubated in 33 different conditions: 0.1×R2A alone (soil control), with and without metabolite additions (prebiotic), and with and without individual SynCom members (probiotic, 8.10^5 CFU/mL), or the whole 16-member SynCom (probiotic consortium, 8.10^5 CFU/mL of each member) (see methods and FIG. 6). Changes in microbial community composition were analyzed by shotgun metagenomics.

Chitinophaga = assay: as above; conditions: natural soil in 0.1×R2A, 7 days
Experimental: as §1, §2

Mucilaginibacter = assay: as above; conditions: natural soil in 0.1×R2A, 7 days
Experimental: as §1, §2

Paenibacillus = assay: as above; conditions: natural soil in 0.1×R2A, 7 days
Experimental: as §1, §2

[1] = natural soil in 0.1×R2A, 7 days

Structure (SMILES): C/C1=C2/[N-][C@H]([C@H](CC(N)=O)[C@@]2(C)CCC(=O)NC[C@H](C)OP(=O)([O-])O[C@H]2[C@@H](O)[C@@H](n3cnc4cc(C)c(C)cc43)O[C@@H]2CO)[C@]2(C)N=C(/C(C)=C3N=C(/C=C4N=C1[C@@H](CCC(N)=O)C\4(C)C)[C@@H](CCC(N)=O)[C@]\3(C)CC(N)=O)[C@@H](CCC(N)=O)[C@]2(C)CC(N)=O.[Co+2] (stereo in doubt) [cobalamin]
- change in relative abundance in the community upon metabolite addition (16-member SynCom): did not induce any significant change

Structure (SMILES): N[C@@H](CSSC[C@H](N)C(=O)O)C(=O)O [cystine]
- change in relative abundance in the community upon metabolite addition (16-member SynCom): did not induce any significant change

Structure (SMILES): O=C(CO)[C@@H](O)[C@H](O)[C@H](O)CO [fructose]
- Burkholderia relative abundance, fold change (Burkholderia; [1]): 3.9 fold change
- Burkholderia's relative abundance (Burkholderia): increase in Burkholderia's relative abundance
- relative abundance of Burkholderia's competitors (Rhizobium and Variovorax; [1]): decrease of its closest competitors Rhizobium and Variovorax
- relative abundance of Burkholderia's competitors Rhizobium and Variovorax (Rhizobium and Variovorax): decrease of its competitors Rhizobium and Variovorax

Structure (SMILES): N[C@@H](CCC(=O)N[C@@H](CS)C(=O)NCC(=O)O)C(=O)O [glutathione]
- relative abundance of primary targets (high TE for import protein) after metabolite addition (16-member SynCom): specifically increased primary targets Burkholderia and Chitinophaga
- relative abundance of secondary targets (guild competitors) after metabolite addition (16-member SynCom): decreasing their competitors Mucilaginibacter, and Bradyrhizobium
- Chitinophaga relative abundance (in words) (Chitinophaga): did not increase Chitinophaga
- Mucilaginibacter relative abundance (in words) (Mucilaginibacter): did not decrease Mucilaginibacter abundance

Structure (SMILES): CSCC[C@H](N)C(=O)O [methionine]
- change in relative abundance in the community upon metabolite addition (16-member SynCom): did not induce any significant change

Structure (SMILES): NCCCCN [putrescine]
- relative abundance of primary targets (high TE for import protein) after metabolite addition (16-member SynCom): specifically increased Paenibacillus and Rhodococcus
- relative abundance of secondary targets (guild competitors) after metabolite addition (16-member SynCom): reducing competitors Rhizobium, Bradyrhizobium, and Mucilaginibacter

Structure (SMILES): O=C[C@H](O)[C@H](O)[C@H](O)CO [ribose]
- relative abundance of primary targets (high TE for import protein) after metabolite addition (16-member SynCom): specific increase of primary targets Paenibacillus and Burkholderia; also recorded: Paenibacillus (increased), Arthobacter and Brevibacillus (not increased)
- relative abundance of secondary targets (guild competitors) after metabolite addition (16-member SynCom): specific decrease of Burkholderia's competitors Variovorax, Rhizobium, and Bradyrhizobium
- Burkholderia's relative abundance (Burkholderia): increase in Burkholderia's relative abundance
- relative abundance of Burkholderia's competitors Rhizobium and Variovorax (Rhizobium and Variovorax): decrease of its competitors Rhizobium and Variovorax
- Paenibacillus relative abundance, fold change (Paenibacillus): 3.5 fold change

Structure (SMILES): OC[C@H]1O[C@H](O[C@H]2O[C@H](CO)[C@@H](O)[C@H](O)[C@H]2O)[C@H](O)[C@@H](O)[C@@H]1O [trehalose]
- Paenibacillus relative abundance, fold change (Paenibacillus): 5.5 fold change
